Assay results from patent publication US11497796B2, “Agents directed against a cis RGMa/neogenin interaction or lipid rafts and use of the same in methods of treatment” (UNIVERSITY HEALTH NETWORK, priority 2013, dated 2022).

Assays:
[1] = test system: temporal retinal explants (axonal outgrowth); experiment: Retinal explants outgrowth assay; assay type: cell-based, chick; details: for outgrowth of retinal explants grown on RGMa proteins, peptide added to medium: 5 μg/ml in the medium
Protocol: Poly-L-Lysine (SIGMA; 10 μg/ml) coated glass coverslips were treated with Laminin (Invitrogen; 10 μg/ml) and RGMa proteins (5 μg/ml) and incubated for 3 hours at room temperature. Temporal retinal explants were cultured on protein-coated surfaces for 18 hours. To disrupt the lipid rafts, explants were pretreated with 10 mM methyl-β-cyclodextrin (MβCD) for 12 minutes or 2 U/ml cholesterol oxidase (CO) for 1 hour at 37° C. Explants were then fixed with 4% paraformaldehyde (PFA) and stained with Alexa488-phalloidin. Fiber length was quantified using Image Pro 5.0. For immunolocalization, explants were treated with Cholera Toxin B-FITC (C1655; Sigma; 10 mg/mL) and patched, fixed and stained with Neogenin antibody. Retinal ganglion cells (RGCs) were electroporated with RGMa-His and cultured for 18 hours. The cells were fixed and stained with Neogenin and His-tag antibodies.
Retinal explants outgrowth assay. Poly-L-Lysine (PLL; SIGMA; 10 μg/ml) coated glass coverslips were treated with Laminin (10 μg/ml; Invitrogen) and RGMa proteins (5 μg) and incubated for 3 hrs at room temperature. PLL treated coverslips were coated with myelin overnight (6 μg/cm2), followed by coating with Laminin. Temporal retinal explants were cultured on either myelin or protein-coated surfaces in DMEM F-12 media (2% chick serum, 10% FBS) for 18 h. To disrupt rafts, explants were pre-treated with 10 mM MβCD for 12 min or 2 U/ml CO for 1 h at 37° C., washed, and cultured on protein coated coverslips. Explants were then fixed with 4% PFA and stained with Alexa488-fluor-phalloidin (1:50; Molecular Probes). Fiber length was quantified using Image Pro 5.0.
Statistical analysis of retinal outgrowth assays was performed using Student's two-tail t-test using Excel (Microsoft). Results were expressed as the mean±SEM (n=at least 3 independent experiments; 2 duplicates per independent experiment, >10 explants per duplicate).

[2] = test system: Neogenin association with lipid rafts; experiment: Lipid raft fractionation of injected chick brain/tecta; assay type: in vivo; details: injected into chick brain/optic tectum one day before fractionation
Protocol: Injected chick E8 tecta (4Ig, 2 mg/mL; N-raft, 1 mg/mL; methyl-β-cyclodextrin (10 mM)) or transfected cells (Neogenin and RGMa) were collected 24 hours later, lysed and placed at the bottom of a sucrose density gradient (0.9-0.8-0.75-0.7-0.6-0.5-0.4-0.2 M) and centrifuged at 38,000 rpm for 16 hours in SW 60 rotor (Beckman Instruments Inc.).
Proteins (4Ig, 2 mg/ml; N-Raft, 1 mg/mL; RGMaΔ, 5 mg/ml; methyl-β-cyclodextrin (10 mM)) were injected in chick E8 optic tectum and tecta were collected 24 hrs later. HEK cells were transfected with Neogenin and different RGMa constructs and collected 48 hrs later. For treatment with RGMaΔ, Neogenin transfected cells were treated with RGMaΔ (2 mg/ml) and BMP-2 (100 nM) and further incubated for 1 hr at 37° C. Tecta (3 tecta for each set of experiment) and/or cells were solubilized in chilled buffer (25 mM Tris-HCl, pH 7.4, 150 mM NaCl, 5 mM EDTA and protease inhibitor cocktail) and passed through G25 and G30 needles, respectively, and centrifuged at 800 g for 10 min at 4° C. Cold Triton X-100 was added to the post nuclear supernatant to a final concentration of 1% and incubated on ice for 1 hour. 2× volume of 2M sucrose was added and sample placed at the bottom of a sucrose density gradient (0.9-0.8-0.75-0.7-0.6-0.5-0.4-0.2 M) and centrifuged at 38,000 rpm for 16 hours in SW 60 rotor (Beckman Instruments Inc.). 400 μl fractions were collected from top (top numbered 1 and next eight fractions numbered consequently) and stored at −80° C.
As such, it was examined if overexpressing recombinant 4Ig and N-Raft competed with the endogenous 4Ig and N-Raft domains to displace Neogenin from the lipid raft fractions to the non-lipid raft fractions. Specifically, N-Raft, 4Ig-domain, or a control peptide, which was amino acid residues 50-99 of RGMa (also referred to herein as “N-RGMa^50-99”), was injected into the optic tectum at E8. The tecta were collected a day later for fractionation-analyses.

injured spinal cord = experiment: Spinal cord injury, immunostaining and quantitative analysis (NeuN, GFAP, lesion volume); assay type: in vivo, rat; details: for lesion volume compared to controls: rat, in vivo; for increase in number of peri-lesional neurons (NeuN) compared to controls: systemic application for 6 weeks
[3] = test system: corticospinal tract axons; experiment: Spinal cord injury, anterograde axonal tracing of the corticospinal tract with BDA; assay type: in vivo, rat; details: for maximal distance of labeled fibers caudal to the lesion site: 4IG IV or MBCD IP; for average length of the longest axon: BDA tracing post-SCI, respective controls 18±7 and 128±118 μm
Protocol: To visualize axons from the CST, anterograde axonal tracing with BDA was performed 6 weeks after SCI following completion of the functional assessment. Animals (n=3-4) from each group were randomly selected for BDA injection. Under deep anesthesia with 2% isofluorane with 1:2 NO:O2, rats were positioned in a stereotaxic frame and craniotomy was performed bilaterally to expose the sensorimotor cortex. BDA (10%, 10,000 MW; Invitrogen (Life Technologies)) was dissolved in 0.01M PBS and injected at 6 sites in each sensorimotor cortex using the following coordinates in reference to bregma: 1) 0.5 mm posterior and 1 mm lateral, 2) 0.5 mm posterior and 2 mm lateral, 3) 1 mm posterior and 1 mm lateral, 4) 1 mm posterior and 2 mm lateral, 5) 1.5 mm posterior and 1 mm lateral, 6) 1.5 mm posterior and 2 mm lateral. At each site, 1 μl of BDA was injected 1.2 mm from the surface of the cortex. Injections were made stereotactically with the aid of an operating microscope using a motorized microinjector at a rate of 0.5 μl/min with a 10 μl Hamilton syringe and a 32-gauge needle. The needle was left in place for an additional 2 min after injection to prevent leakage and the skin was closed with 6-0 Vicryl. Animals were allowed to survive for 3 more weeks and then intracardially perfused with 4% paraformaldehyde in 0.1 M PBS. BDA tissue including a 1.5 cm segment of tissue encompassing the lesion site was excised and processed as either 20 μm cryosections on slides or free-floating 30 μm sections. Free-floating sections were collected in 24-well plates containing PBS. Sections were pre-treated with 1% H2O2 in methanol for 10 min at RT, rinsed with PBS containing 0.5% Triton X for 30 min, and incubated in avidin-biotin peroxidase complex (Vectostain Elite ABC Kit Standard, Vector Laboratories, Burlington, ON, Canada) for 1 h at RT. Slides were washed with PBS, and then incubated with fluorescent Alexa-488 goat anti-mouse secondary antibody (1:500; Invitrogen (Life Technologies)) for 1 h at RT and coverslipped with Vectashield mounting medium containing DAPI (4′, 6-diamidino-2-phenyl-indole) (Vector Laboratories, Burlington, Ontario, Canada) nuclear counterstain.

Row | Molecule | outgrowth of retinal explants grown on RGMa proteins, peptide added to medium [1] | effect on axonal outgrowth when provided as growth substrate (in trans) ([1]; protein as substrate) | Neogenin localization in membrane fractions [2] | axonal outgrowth on RGMa proteins after lipid raft disruption ([1]; 10 mM MβCD or 2 U/ml of CO) | lesion volume compared to controls (injured spinal cord) | increase in number of peri-lesional neurons (NeuN) compared to controls (injured spinal cord) | maximal distance of labeled fibers caudal to the lesion site [3] | average length of the longest axon [3] | increase of NeuN positive cells in cross-sections of the spinal cord (injured spinal cord; intrathecal application over 6 weeks) | fiber length at 6 weeks compared to 4 weeks following injury ([3]; IV-injection)
1 | N-Raft: peptide spanning amino acids 28-73 of RGMa (SEQ ID NO:2) (SPCKILKCNSEFWAATSGSHHLGAEETPEFCTALRAYAHCTRRTAR; N-Raft - amino acids 28-73 of RGMa) | restored outgrowth | no effect | relocalized from the lipid raft fractions to the heavy fractions | – | – | – | – | – | – | –
2 | methyl-β-cyclodextrin [MβCD, reference compound] | – | – | recovered in the non-lipid raft fraction | restored to control values | did not significantly vary | about 2 fold | about 4 mm | 2195±335 μm | – | –
3 | 4Ig: four immunoglobulin-like domains of Neogenin, amino acids 1 to 383 of Accession No. AAC59662 (SEQ ID NO:1) (protein, listed as Gallus gallus, Neogenin - Accession No. AAC59662) RSGPRSPLTGSVVRTFTPFYFLVEPMDILSVRGASVIMNCSSYCETPPKIEWKKDGTLLNLVSDDRRQLLPDGSLLINSVVHSKHNKPDEGYYQCVATVESLGSIVSRTAKLTVAGLPRFTSQPELSSVYKGNSAILNCEVNVDLAPFVRWEQDRQPLSLDDRVFKLPSGALLIGNATDTDGGFYRCVIESGGTPKYSEEAELKILPDPEEPQSLVFVRQPSSLTKVTGQNAVFPCVAGGFPTPYVRWTKNGEELITEDSERFALRAGGSLLISDVTEEDVGTYTCIADNENETIEAQAELAVQVPPEFLKRPANIYAHESMDIVFECEVTGKPTPTVKWVKNGDVVIPSDYFKIVKEHNLQVLGLVKSDEGFYQCIAENDVGNAQAGAQLIILDLDVAIPTLPPTSLTSATNDHLAPATTGPLPTAPRDVVATLVSTRFIRLTWRTPVSDPQGDNLTYSIFYTKEGINRERVENTSRPGETQVMIQNLMPETVYVFRVVAQNKHGHGESSAPLKVATQPEVQLPGPAPNIRAYAGSPTSVTVTWETPLSGNGEIQNYKLYYMEKGQDSEQDVDVAGLSYTITGLKKYTEYSFRVVAYNKHGPGVSTQDVVVRTLSDVPSAAPQNLTLEARNSKSIMLHWQPPPAGTHSGQITGYKIRYRKVSRKSDVTESVGGTQLFQLIEGLERGTEYNFRIAAMTVNGTGPATDWVSAETFESDLDESRVPEVPSSLHVRPLVTSIVVSWTPPENQNIVVRGYAIGYGIGSPHAQTIKVDYKQRYYTIENLDPSSHYVITLKAFNNVGEGIPLYESAVTRPHSDTSEVDLFVINAPYTPVPDPSPMMPPVGVQASILSHDTIRITWADNSLPKNQKITDARYYTVRWKTNIPANTKYKTANATTLSYLVTGLKPNTLYEFSVMVTKGRRSSTWSMTAHGTTFELVPTSPPKDVTVVSKEGKPRTIIVNWQPPSEANGKITGYIIYYSTDVNAEIHDWVIEPVVGNRLTHQIQELTLDTPYYFKIQARNSKGMGPMSEAVQFRTPKAESSDKMPNDQASGSAGKGSRPVDVGPDYKPPLSGSNSPHGSPTSPLDSNMLLVIIVSVGVITIVIVVIVAVFCTRRTTSHQKKKRAACKSVNGSHKYKGNSKDVKPPDLWIHHERLELKPIDKSPDPNPIMTDTPIPRNSQDITPVDNSMDSNIHQRRNSYRGHESEDSMSTLAGRRGMRPKMMMPFDSQPPQPVISAHPIHSLDNPHHHFHSGSLASPTRSYLHHQVSPWPVGTSMSHSDRANSTESVRNTPSSDTMPASSSQPCADHQDPDSSSGAYLGSAQEEDAAQSLPTAHVRPSHPLKSFAVPAVPAAGSAYDPTLPSTPLLTQQAPSHPVHSVKTASIGTLGRTRPPMPVVVPSAPDVQETTRMLEDSESSYEPDELTKEMAHLEGLMKDLNAITTA | restored outgrowth | – | relocalized from the lipid raft fractions to the heavy fractions | – | did not significantly vary | about 2 fold | about 4 mm | 2875±228 μm | about 2 fold | significantly longer at 6 weeks
